Reference: patent US9522198B2, “Methods and compositions related to targeting tumors and wounds” (Sanford-Burnham Medical Research Institute, priority 2006, dated 2016)
Ends that are not written are not given here.

Test system: B16F1 tumors
Assay: Homing to B16F1 tumors in wild type, fibrinogen knockout and plasma fibronectin-deficient mice
Type: in vivo, mouse
From the text: Knockout mice were employed to study the role of fibrin(ogen) and fibronectin in the homing of the CLT peptides to tumors. Fibrinogen knockout mice are viable (Palumbo, J. S., Kombrinck, K. W., Drew, A. F., Grimes, T. S., Kiser, J. H. Jay L. Degen, J. L. & Bugge, T. H. (2000), Blood 96, 3302-3309) and were used as tumor recipients. Complete absence of fibronectin is lethal, but mice that lack plasma fibronectin can be generated by postnatally deleting the fibronectin gene in the liver (Sakai, T., Johnson, K. J., Murozono, M., Sakai, K., Magnuson, M. A., Wieloch, T., Cronberg, T., Isshiki, A., Erickson, H. P., & Fassler R. (2001) Nat. Med. 7, 324-30). The CLT peptides homed to B16F1 tumors grown in wild type C57BL/6 mice (n=10) producing a fibrillar meshwork (CLT1; FIG. 3D). In contrast, only faint, evenly distributed fluorescence was present in tumors (n=4) grown in the fibrinogen knockout mice (which lack the ability to produce fibrin) (FIG. 3E). […] Unlike in the fibrinogen knockout mice, there was no residual peptide binding to the tumors in the plasma fibronectin-deficient mice (FIG. 3H).
B16F1 mouse melanoma, Lewis lung carcinoma, C8161 human melanoma, MDA-MB-435 human breast cancer, and PPC-1 human prostate cancer cells (American Type Culture Collection) were maintained in RPMI or DMEM supplemented with 10% FCS. Human tumor cells (1×10^6) were injected into the mammary fat pad or the flank of nude BALB/c nu/nu mice to induce tumors. MMTV PyMT mice were provided by Dr. Robert Oshima (Burnham Institute for Medical Research, La Jolla, Calif.). […]
The mice were perfused through the heart 3 hours after the peptide injection and tissues removed for examination. […] Tissue fluorescence was quantified using Image-Pro Plus software. At least two images from representative microscopic fields were analyzed from each tissue sample and data from individual mice that received the same treatment (n=2-8) were pooled.

“CGLIIQKNEC (also: cyclic, ring type not given here, fluorescein conjugate, site not given here) [CLT1, cyclic decapeptide from phage library screened on plasma clots; tested as fluorescein conjugate]” was tested, and the “homing to B16F1 tumors” value (plasma fibronectin-deficient mice) was “negative”, the “homing to B16F1 tumors” value (wild type C57BL/6 mice) was “produce a fluorescent meshwork” and the “homing to B16F1 tumors” value (wild type littermates of plasma fibronectin-deficient mice) was “homes”.
